In patent US10781472B2, “Systems and methods for determining cyclic nucleotide concentration and related pathway activation” (PROMEGA CORPORATION, priority 2005, dated 2020):
Each block holds one compound with its values, some of them ahead of it.

Tests used:
[1] = target: dopamine receptor D1 (DRD1) (Homo sapiens, UniProt P21728); conditions: 1 μg DRD1 plasma membranes, 15 min induction (FIG. 10)
Protocol: Plasma membranes (1 μg of protein in 25 μl of Stimulation Buffer) and 10 μM GDP were added to the wells of a 96-well plate and incubated at room temperature for 10 minutes. Twenty microliters of each compound dilution was added to specific wells. Induction was carried out for 15 minutes at room temperature followed by addition of 40 μl of PKA/Substrate Reagent. The reactions were allowed to incubate for an additional 20 minutes at room temperature followed by addition of 80 μl of Kinase-Glo™ Reagent. Luminescence was read 10 minutes after addition of the Kinase-Glo™ Reagent and output was recorded as relative light units (RLU) and plotted against forskolin concentration using GraphPad Prism® Software Version 4.0.

phosphodiesterase PDE V = phosphodiesterase PDE V (Homo sapiens, UniProt O76074); assay: cGMP-PDE (PDE V) activity in the presence of inhibitor, PKA/Kinase-Glo luminescence; assay type: biochemical; conditions: 15 U PDE V, cGMP substrate, 30 min (FIG. 7B)
Protocol: A two-fold serial dilution of Zaprinast (20 μM) was made in Stop Buffer without IBMX and ATP, supplemented with 10 μM cGMP. An enzyme solution containing PDE V was also made so that every 12.5 μl of the enzyme solution contained 15 U (Stop Buffer without IBMX and ATP) of the enzyme. An aliquot (12.5 μl) of each dilution was added to the reaction wells and an equal amount of the phosphodiesterase PDEV enzyme solution was added to start the reaction. The plate was incubated for 30 min. at room temperature, followed by addition of 12.5 μl of Stop Buffer supplemented with 1.5 mM IBMX and 4 μM ATP to stop the reaction. An equal volume of a PKA/substrate reagent containing 100 ng/well Holoenzyme-R-II α protein kinase A, 40 μM Kemptide, 40 mM Tris HCl pH 7.5, 20 mM MgCl2, and 0.1 mg/ml BSA was added to each well, the plate was incubated for an additional 20 min., and 50 μl of Kinase-Glo™ Reagent was added.

[2] = target: T1, Holoenzyme-R-II α protein kinase A (Homo sapiens, UniProt P13861); assay: Side by side titration of cAMP and cGMP for activation of PKA; assay type: biochemical; conditions: FIG. 6
T1 construct: purchased BIAFFIN GmbH & Co., Kassel, Germany
T1 sequence (P13861 whole entry): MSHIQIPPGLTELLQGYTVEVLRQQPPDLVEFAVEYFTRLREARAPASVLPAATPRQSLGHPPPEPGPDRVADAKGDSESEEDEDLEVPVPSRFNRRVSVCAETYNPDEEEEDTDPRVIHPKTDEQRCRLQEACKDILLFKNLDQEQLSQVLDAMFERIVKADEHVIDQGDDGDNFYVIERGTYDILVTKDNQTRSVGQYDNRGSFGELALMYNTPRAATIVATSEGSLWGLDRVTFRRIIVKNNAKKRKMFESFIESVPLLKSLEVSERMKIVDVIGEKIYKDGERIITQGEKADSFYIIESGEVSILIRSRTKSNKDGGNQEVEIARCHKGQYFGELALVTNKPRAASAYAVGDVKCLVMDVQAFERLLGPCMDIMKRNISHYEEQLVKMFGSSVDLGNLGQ
Protocol: Two-fold serial dilutions of cAMP and cGMP (initial concentration of both 40 μM) were made in Stop Buffer without ATP and IBMX, but supplemented with 2 μM ATP. Twenty-five μl of the dilutions were aliquoted into white 96-well plates, followed by the addition of 25 μl of a PKA/substrate reagent containing 100 ng/well Holoenzyme-R-II α protein kinase A, 20 μM Kemptide, 40 mM Tris HCl pH 7.5, 20 mM MgCl2, and 0.1 mg/ml BSA. The reactions were allowed to incubate for 20 min. at room temperature, and 50 μl of Kinase-Glo™ Reagent was added followed by an additional 10 min. incubation. Luminescence was measured 10 min. after addition of the Kinase-Glo™ Reagent and output was recorded as RLUs (n=2) and plotted against cyclic nucleotide (cNMP) concentration using GraphPad Prism® Software Version 4.0.

Sequence of dopamine receptor D1 (DRD1) (P21728 whole entry): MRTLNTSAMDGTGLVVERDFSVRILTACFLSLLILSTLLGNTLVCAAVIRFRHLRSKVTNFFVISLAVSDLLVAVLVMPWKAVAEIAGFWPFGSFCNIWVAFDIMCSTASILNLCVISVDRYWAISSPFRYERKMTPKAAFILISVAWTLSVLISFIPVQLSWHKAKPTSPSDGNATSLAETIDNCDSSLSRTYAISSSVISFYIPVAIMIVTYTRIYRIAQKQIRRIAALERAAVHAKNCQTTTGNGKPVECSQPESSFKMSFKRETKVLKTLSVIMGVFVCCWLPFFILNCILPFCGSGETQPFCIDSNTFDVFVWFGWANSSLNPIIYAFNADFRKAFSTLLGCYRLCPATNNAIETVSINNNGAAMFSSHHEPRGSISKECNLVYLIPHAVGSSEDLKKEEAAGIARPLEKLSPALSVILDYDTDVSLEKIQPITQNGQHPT

SMILES: Oc1cc2c(cc1O)C(c1ccccc1)CNCC2 (stereo not drawn) [SKF38393, 1-Phenyl-2,3,4,5-tetrahydro-(1H)-3-benzazepine-7,8-diol]
luminescent signal as agonist concentration increases (DRD1 activation) [1]: luminescent signal decreases

relative light units as inhibitor amount increases (PDE V inhibition) (phosphodiesterase PDE V): relative light units decrease
SMILES: CCCOc1ccccc1-c1nc2nn[nH]c2c(=O)[nH]1 [Zaprinast]

binding to regulatory subunits of PKA, affinity relative to cAMP [2]: lower affinity than that of cAMP
SMILES: Nc1nc2c(ncn2[C@@H]2O[C@@H]3COP(=O)(O)O[C@H]3[C@H]2O)c(=O)[nH]1 [cGMP, guanosine 3′, 5′cyclic monophosphate]
